{
  "source": "patent US9284562B2",
  "about": "“Biological circuit chemotactic converters” (Trustees of Boston University, priority 2009, dated 2016)",
  "key": {"[1]": {"biological_target": "signaling complex", "settings": "read-out: Affinity (Kd) for signaling complex; cited from earlier work"}, "[2]": {"test_system": "GFP expression", "assay": "Exemplary SIMM circuit of FIG. 2B, GFP output (FIG. 2C)", "type": "cell-based", "settings": "inducer added to the exemplary SIMM circuit of FIG. 2B", "from_the_text": "FIGS. 2A-2C depict an exemplary switch-module (SIMM) for use in the converters described herein and data from the exemplary switch module (SIMM). FIG. 2A depicts an exemplary SIMM comprising a first inducible promoter sequence (P inducible,1) linked to a forward recombinase recognition site (R1RS), an inverted sequence of a second inducible promoter (P inducible,2), a recombinase sequence (Recombinase 1), and a reverse recombinase recognition site (R1RS). Further upstream of the first inducible promoter sequence of the SIMM is an inverted sequence of a constitutively active inducer agent that is specific for the second inducible promoter. Downstream of the reverse recombinase recognition site of the SIMM is an inverted sequence of a third inducible promoter (P inducible,3) and a sequence encoding a dominant negative version of the inducer agent specific for the second inducible promoter. A further component of the exemplary circuit is a sequence of the second inducible promoter operably linked to an output product. In the absence of any inducing agent, constitutive expression of the inducer agent that is specific for the second inducible promoter drives expression from the inducible promoter operably linked to an output product. […]"}, "[3]": {"biological_target": "Hin recombinase (Salmonella typhimurium, UniProt P03013)", "sequence (P03013 whole entry)": "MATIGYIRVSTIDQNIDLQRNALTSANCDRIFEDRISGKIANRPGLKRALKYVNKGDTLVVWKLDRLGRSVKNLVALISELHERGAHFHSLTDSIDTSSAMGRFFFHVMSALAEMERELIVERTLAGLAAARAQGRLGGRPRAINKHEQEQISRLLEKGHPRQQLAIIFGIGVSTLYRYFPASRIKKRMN", "settings": "relative to hixL and hixR; cited from earlier work"}, "[4]": {"biological_target": "Hin (Salmonella typhimurium, UniProt P03013)", "sequence (P03013 whole entry)": "as above", "settings": "relative to wild type sites hixL and hixR; cited from earlier work"}},
  "note": "pKd: −log10 of the molar value.",
  "data": [
    {"compound": "Maltose-binding protein", "values": [
      {"measurement": "pKd", "setting": "[1]", "result": 3.60}
    ]},
    {"compound": "CC(C)S[C@@H]1O[C@H](CO)[C@H](O)[C@H](O)[C@H]1O", "note": "[IPTG, isopropyl β-D-1-thiogalactopyranoside]", "values": [
      {"measurement": "Effect on GFP expression of the circuit", "setting": "[2]", "result": "restores the circuit to its initial state"}
    ]},
    {"compound": "hixC: composite 26 bp symmetrical hix site, binding site for Salmonella typhimurium Hin recombinase (DNA TTATCAAAAACCATGGTTTTTGATAA; chemistry not given here)", "values": [
      {"measurement": "fold slower inversion rate than wild type sites hixL and hixR", "setting": "[3]", "result": 16, "unit": "fold"},
      {"measurement": "binding affinity for Hin", "setting": "[4]", "result": "higher binding affinity for Hin"}
    ]},
    {"compound": "Cc1c2c(c(O)c3c(O)cccc13)C(=O)[C@]1(O)C(=O)C(C(N)=O)=C(O)[C@@H](N(C)C)[C@@H]1C2", "note": "[anhydrous tetracycline, Anhydrotetracycline]", "values": [
      {"measurement": "Effect on GFP expression of the circuit", "setting": "[2]", "result": "inhibits GFP expression"}
    ]}
  ]
}
